Data reported in US11179368B2, “Substituted indoline derivatives as dengue viral replication inhibitors” (JANSSEN PHARMACEUTICALS, INC., priority 2017, dated 2021).
Structures can show the parent of a compound that is named as a salt. Where two headings read alike, the source gives them in different places.

Experiments:
DENV-2 16681 strain = assay: DENV-2 antiviral assay (eGFP-labeled virus in Vero cells); assay type: cell-based, Dengue virus; conditions: for EC50: DENV-2 16681 eGFP, Vero cells, MOI 0.5, 3 days; for SI: SI=CC50/EC50, DENV-2 antiviral assay
DENV-1 strain TC974#666 = assay: Tetravalent RT-qPCR assay, serotype 1; assay type: cell-based, Dengue virus; conditions: for EC50: Dengue virus, DENV1, 72 h, RT-qPCR serotype 1 TC974#666, Vero cells, day 3; for SI: RT-qPCR serotype 1 TC974#666
Procedure: (§1) The antiviral activity of the compounds of the invention was tested against DENV-1 strain TC974#666 (NCPV), DENV-2 strain 16681, DENV-3 strain H87 (NCPV) and DENV-4 strain H241 (NCPV) in a RT-qPCR assay. Therefore, Vero cells were infected with either DENV-1, or -2, or -3, or -4 in the presence or absence of test compounds. At day 3 post-infection, the cells were lysed and cell lysates were used to prepare cDNA of both a viral target (the 3′UTR of DENV; Table 2) and a cellular reference gene (1-actin, Table 2). Subsequently, a duplex real time PCR was performed on a Lightcycler480 instrument. The generated Cp value is inversely proportional to the amount of RNA expression of these targets. Inhibition of DENV replication by a test compound results in a shift of Cp's for the 3′UTR gene. On the other hand, if a test compound is toxic to the cells, a similar effect on β-actin expression will be observed. The comparative ΔΔCp method is used to calculate EC50, which is based on the relative gene expression of the target gene (3′UTR) normalized with the cellular housekeeping gene (β-actin). In addition, CC50 values are determined based on the Cp values acquired for the housekeeping gene β-actin.
(§2) The culture medium consisted of minimal essential medium supplemented with 2% of heat-inactivated fetal calf serum, 0.04% gentamycin (50 mg/mL) and 2 mM of L-glutamine. Vero cells, obtained from ECACC, were suspended in culture medium and 75 μL/well was added in 96-well plates (10000 cells/well), which already contain the antiviral compounds. […] In addition, each plate contains wells which are assigned as virus controls (containing cells and virus in the absence of compound) and cell controls (containing cells in the absence of virus and compound). Once the cells were added in the plates, the plates were incubated in a fully humidified incubator (37° C., 5% CO2) until the next day. Dengue viruses serotype-1, 2, 3 and 4 were diluted in order to obtain a Cp of ˜22-24 in the assay. Therefore, 25 μL of virus suspension was added to all the wells containing test compound and to the wells assigned as virus control. In parallel, 25 μL of culture medium was added to the cell controls. Next, the plates were incubated for 3 days in a fully humidified incubator (37° C., 5% CO2). After 3 days, the supernatant was removed from the wells and the cells were washed twice with ice-cold PBS (˜100 μL). The cell pellets within the 96-well plates were stored at −80° C. for at least 1 day. Next, RNA was extracted using the Cells-to-CT™ lysis kit, according to the manufacturer's guideline (Life Technologies). The cell lysates can be stored at −80° C. or immediately used in the reverse transcription step.
(§3) In preparation of the reverse transcription step, mix A (table 3A) was prepared and 7.57 μL/well was dispensed in a 96-well plate. After addition of 5 μL of the cell lysates, a five minute denaturation step at 75° C. was performed (table 3B). Afterwards, 7.43 μL of mix B was added (table 3C) and the reverse transcription step was initiated (table 3D) to generate cDNA.
(§4) Finally, a RT-qPCR mix was prepared, mix C (table 4A), and 22.02 μL/well was dispensed in 96-well LightCycler qPCR plates to which 3 μL of cDNA was added and the qPCR was performed according to the conditions in table 4B on a LightCycler 480.
(§5) Using the LightCycler software and an in-house LIMS system, dose response curves for each compound were calculated and the half maximal effective concentration (EC50) and the half maximal cytotoxic concentration (CC50) were determined (Tables 5-8).

DENV-2 strain 16681 = assay: Tetravalent RT-qPCR assay, serotype 2; assay type: cell-based, Dengue virus; conditions: for EC50: Dengue virus, DENV2, 72 h, RT-qPCR serotype 2 16681, Vero cells, day 3; for SI: RT-qPCR serotype 2 16681
Procedure: as §1, §2, §3, §4, §5

DENV-3 strain H87 = assay: Tetravalent RT-qPCR assay, serotype 3; assay type: cell-based, Dengue virus; conditions: for EC50: Dengue virus, DENV3, 72 h, RT-qPCR serotype 3 H87, Vero cells, day 3; for SI: RT-qPCR serotype 3 H87
Procedure: as §1, §2, §3, §4, §5

DENV-4 strain H241 = assay: Tetravalent RT-qPCR assay, serotype 4; assay type: cell-based, Dengue virus; conditions: for EC50: Dengue virus; for SI: RT-qPCR serotype 4 H241
Procedure: as §1, §2, §3, §4, §5

in vitro [1] = assay type: cell-based; conditions: African green monkey, CC50
Procedure: as §1, §2, §3, §4, §5

Vero cells [2] = conditions: African green monkey
in vitro [3] = conditions: African green monkey
Vero cells [4] = assay: in vitro; assay type: cell-based; conditions: African green monkey, 3 days
Procedure: as §1, §2, §3, §4, §5

[5] = DENV4, 72 h, RT-qPCR serotype 4 H241, Vero cells, day 3, read-out: EC50

COc1cc(NC(C(=O)N2CCc3ccc(C(F)(F)F)cc32)c2ccc(F)cc2OCCO)cc(S(C)(=O)=O)c1 (single isomer, unassigned) [Compound 1B]
EC50 (DENV-2 16681 strain): 1.4 nM | SI (DENV-2 16681 strain): >1980 | EC50 (DENV-1 strain TC974#666): 1.5 nM | SI (DENV-1 strain TC974#666): >2860 | EC50 (DENV-2 strain 16681): 1.1 nM | SI (DENV-2 strain 16681): 4670 | EC50 (DENV-3 strain H87): 20 nM | SI (DENV-3 strain H87): >127 | EC50 (DENV-4 strain H241; DENV4, Vero, 72 h): 130 nM | SI (DENV-4 strain H241): 23 | CC50 at 3 days (in vitro [1]): > 2500 nM | CC50 (Vero cells [2]): 3400 nM

COc1cc(NC(C(=O)N2CCc3ccc(OC(F)(F)F)cc32)c2ccc(Cl)cc2OCCCC(=O)O)cc(S(C)(=O)=O)c1 (racemic) (as salt: HCl) (hydrate or solvate) [Compound 9, 4-(5-chloro-2-(1-((3-methoxy-5-(methylsulfonyl)phenyl)amino)-2-oxo-2-(6-(trifluoromethoxy)indolin-1-yl)ethyl)phenoxy)butanoic acid]
melting point: 155 °C

COc1cc(NC(C(=O)N2CCc3cc(OC)c(C(F)(F)F)cc32)c2ccc(Cl)cc2OCCO)cc(S(C)(=O)=O)c1 (single isomer, unassigned) [Compound 5B]
EC50 (DENV-2 16681 strain): 0.23 nM | SI (DENV-2 16681 strain): >16800 | EC50 (DENV-1 strain TC974#666): 0.94 nM | SI (DENV-1 strain TC974#666): 8640 | EC50 (DENV-2 strain 16681): 0.24 nM | SI (DENV-2 strain 16681): >17100 | EC50 (DENV-3 strain H87): 6.7 nM | SI (DENV-3 strain H87): >752 | EC50 (DENV-4 strain H241; [5]): 26 nM | SI (DENV-4 strain H241): 86 | CC50 (Vero cells [2]): 8500 nM

COc1cc(NC(C(=O)N2CCc3ccc(OC(F)(F)F)cc32)c2ccc(F)cc2OCCO)cc(S(C)(=O)=O)c1 (single isomer, unassigned) [Compound 3B]
EC50 (DENV-2 16681 strain): 0.61 nM | SI (DENV-2 16681 strain): 16300 | EC50 (DENV-1 strain TC974#666): 1.1 nM | SI (DENV-1 strain TC974#666): >3640 | EC50 (DENV-2 strain 16681): 0.9 nM | SI (DENV-2 strain 16681): 4760 | EC50 (DENV-3 strain H87): 13 nM | SI (DENV-3 strain H87): >444 | EC50 (DENV-4 strain H241; [5]): 72 nM | SI (DENV-4 strain H241): >32 | CC50 at 3 days (in vitro [1]): > 2500 nM | CC50 (Vero cells [2]): 8700 nM

COc1cc(NC(C(=O)N2CCc3ccc(OC(F)(F)F)cc32)c2ccc(Cl)cc2OCCCC(=O)O)cc(S(C)(=O)=O)c1 (single isomer, unassigned) [Compound 9B]
EC50 (DENV-2 16681 strain): 0.15 nM | SI (DENV-2 16681 strain): 83000 | EC50 (DENV-1 strain TC974#666): 0.1 nM | SI (DENV-1 strain TC974#666): >45500 | EC50 (DENV-2 strain 16681): 0.068 nM | SI (DENV-2 strain 16681): >56500 | EC50 (DENV-3 strain H87): 1.7 nM | SI (DENV-3 strain H87): >1840 | EC50 (DENV-4 strain H241; [5]): 7.2 nM | SI (DENV-4 strain H241): 1390 | CC50 at 3 days (in vitro [1]): > 2500 nM | CC50 (Vero cells [2]): 13000 nM

COc1cc(NC(C(=O)N2CCc3ccc(OC(F)(F)F)cc32)c2ccc(Cl)cc2OCCO)cc(S(C)(=O)=O)c1 (single isomer, unassigned) [Compound 6A]
EC50 (DENV-2 16681 strain): 0.23 nM | SI (DENV-2 16681 strain): >12000 | EC50 (DENV-1 strain TC974#666): 0.16 nM | SI (DENV-1 strain TC974#666): >41300 | EC50 (DENV-2 strain 16681): 0.16 nM | SI (DENV-2 strain 16681): >12600 | EC50 (DENV-3 strain H87): 2.6 nM | SI (DENV-3 strain H87): >1480 | EC50 (DENV-4 strain H241; [5]): 26 nM | SI (DENV-4 strain H241): 119 | CC50 at 3 days (in vitro [1]): > 2500 nM | CC50 (in vitro [3]): 7300 nM

COc1cc(NC(C(=O)N2CCc3ccc(C(F)(F)F)cc32)c2ccc(Cl)cc2OCCO)cc(S(C)(=O)=O)c1 (single isomer, unassigned) [Compound 4A]
EC50 (DENV-2 16681 strain): 0.41 nM | SI (DENV-2 16681 strain): 15000 | EC50 (DENV-1 strain TC974#666): 0.75 nM | SI (DENV-1 strain TC974#666): >5470 | EC50 (DENV-2 strain 16681): 0.45 nM | SI (DENV-2 strain 16681): 11700 | EC50 (DENV-3 strain H87): 13 nM | SI (DENV-3 strain H87): >234 | EC50 (DENV-4 strain H241; [5]): 44 nM | SI (DENV-4 strain H241): 69 | CC50 at 3 days (in vitro [1]): > 2500 nM | CC50 (in vitro [3]): 6000 nM

COc1cc(NC(C(=O)N2CCc3ccc(C(F)(F)F)cc32)c2ccc(Cl)cc2OCCCC(=O)O)cc(S(C)(=O)=O)c1 (single isomer, unassigned) [Compound 7B]
EC50 (DENV-2 16681 strain): 0.25 nM | SI (DENV-2 16681 strain): 90600 | EC50 (DENV-1 strain TC974#666): 0.13 nM | SI (DENV-1 strain TC974#666): >19200 | EC50 (DENV-2 strain 16681): 0.19 nM | SI (DENV-2 strain 16681): >13500 | EC50 (DENV-3 strain H87): 5.2 nM | SI (DENV-3 strain H87): >473 | EC50 (DENV-4 strain H241; [5]): 24 nM | SI (DENV-4 strain H241): >186 | CC50 at 3 days (in vitro [1]): > 2500 nM | CC50 (Vero cells [4]): > 2500 nM | CC50 (Vero cells [2]): 11000 nM

COc1cc(NC(C(=O)N2CCc3cc(OC)c(C(F)(F)F)cc32)c2ccc(Cl)cc2OCCCC(=O)O)cc(S(C)(=O)=O)c1 (single isomer, unassigned) [Compound 8B]
EC50 (DENV-2 16681 strain): 1.2 nM | SI (DENV-2 16681 strain): 6780 | EC50 (DENV-1 strain TC974#666): 1.2 nM | SI (DENV-1 strain TC974#666): 10500 | EC50 (DENV-2 strain 16681): 0.3 nM | SI (DENV-2 strain 16681): 54300 | EC50 (DENV-3 strain H87): 19 nM | SI (DENV-3 strain H87): 796 | EC50 (DENV-4 strain H241; [5]): 84 nM | SI (DENV-4 strain H241): 88 | CC50 (Vero cells [2]): 14000 nM
